{"source": "patent US8710062B2", "about": "“Piperazinedione compounds” (Taipei Medical University, priority 2011, dated 2014)", "key": {"[1]": {"molecular_target": "ABL1 (Mus musculus, UniProt P00520)", "sequence (P00520 whole entry)": "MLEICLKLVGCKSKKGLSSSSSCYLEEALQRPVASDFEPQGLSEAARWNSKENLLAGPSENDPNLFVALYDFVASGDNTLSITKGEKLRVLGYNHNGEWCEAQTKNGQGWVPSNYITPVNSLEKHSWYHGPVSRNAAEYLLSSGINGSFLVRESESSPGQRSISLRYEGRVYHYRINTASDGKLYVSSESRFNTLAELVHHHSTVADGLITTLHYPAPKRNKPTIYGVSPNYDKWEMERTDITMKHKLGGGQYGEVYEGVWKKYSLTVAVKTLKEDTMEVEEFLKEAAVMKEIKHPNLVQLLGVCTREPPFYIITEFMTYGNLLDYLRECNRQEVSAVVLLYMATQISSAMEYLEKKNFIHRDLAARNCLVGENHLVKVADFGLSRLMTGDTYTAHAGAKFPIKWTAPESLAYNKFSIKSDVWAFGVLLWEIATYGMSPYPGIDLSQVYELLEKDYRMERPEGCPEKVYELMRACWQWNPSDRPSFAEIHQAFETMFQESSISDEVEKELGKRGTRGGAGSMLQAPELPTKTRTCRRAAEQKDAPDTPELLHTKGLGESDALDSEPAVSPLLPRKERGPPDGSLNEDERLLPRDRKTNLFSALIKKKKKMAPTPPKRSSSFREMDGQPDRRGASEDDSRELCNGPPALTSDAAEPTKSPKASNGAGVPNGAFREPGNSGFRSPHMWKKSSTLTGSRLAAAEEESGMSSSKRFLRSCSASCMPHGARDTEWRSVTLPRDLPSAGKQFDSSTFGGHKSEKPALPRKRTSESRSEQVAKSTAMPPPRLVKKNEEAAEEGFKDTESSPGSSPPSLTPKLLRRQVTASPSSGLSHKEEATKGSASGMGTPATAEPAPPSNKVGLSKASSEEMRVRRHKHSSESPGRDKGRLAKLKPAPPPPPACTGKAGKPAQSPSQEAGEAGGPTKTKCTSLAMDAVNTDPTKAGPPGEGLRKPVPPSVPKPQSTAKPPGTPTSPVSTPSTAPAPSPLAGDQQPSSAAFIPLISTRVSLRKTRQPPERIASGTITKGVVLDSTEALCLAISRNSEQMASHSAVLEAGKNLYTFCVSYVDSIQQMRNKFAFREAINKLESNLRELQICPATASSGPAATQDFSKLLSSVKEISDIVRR", "experiment": "Kinome inhibition assay", "assay_type": "biochemical", "procedure": "(§1) Kinome inhibition studies were conducted following the procedures described in literature. […] In general, each purified kinase was incubated with its substrate in buffer (MOPS buffer or HEPES buffer) containing an essential metal co-enzyme or cofactor, antioxidant, and ATP (gamma-P^32 radio-labeled ATP or cold ATP). Compound 2 was co-incubated with the kinase solution thus obtained for 0.5-1 hr at 37° C. The reaction was stopped by boiling the reaction solution with an extra SDS solution. The phosphorylation level of the substrate was monitored ether by quantification of the radio-labeled substrate or by quantification of phosphor-substrate specific antibodies. In each study, a reference standard was run as an integral part to ensure the validity of the experimental results obtained. The table below includes the IC50 values obtained from this experiment."}, "[2]": {"molecular_target": "AKT1 (PRKBA) (Homo sapiens, UniProt P31749)", "experiment": "Kinome inhibition assay", "assay_type": "biochemical", "procedure": "as §1"}, "[3]": {"molecular_target": "AURKA (Aurora-A) (Homo sapiens, UniProt O14965)", "experiment": "Kinome inhibition assay", "assay_type": "biochemical", "procedure": "as §1"}, "[4]": {"molecular_target": "CAMK2D (KCC2D) (Homo sapiens, UniProt Q13557)", "experiment": "Kinome inhibition assay", "assay_type": "biochemical", "procedure": "as §1"}, "[5]": {"molecular_target": "CDC42BPB (Homo sapiens, UniProt Q9Y5S2)", "sequence (Q9Y5S2 whole entry)": "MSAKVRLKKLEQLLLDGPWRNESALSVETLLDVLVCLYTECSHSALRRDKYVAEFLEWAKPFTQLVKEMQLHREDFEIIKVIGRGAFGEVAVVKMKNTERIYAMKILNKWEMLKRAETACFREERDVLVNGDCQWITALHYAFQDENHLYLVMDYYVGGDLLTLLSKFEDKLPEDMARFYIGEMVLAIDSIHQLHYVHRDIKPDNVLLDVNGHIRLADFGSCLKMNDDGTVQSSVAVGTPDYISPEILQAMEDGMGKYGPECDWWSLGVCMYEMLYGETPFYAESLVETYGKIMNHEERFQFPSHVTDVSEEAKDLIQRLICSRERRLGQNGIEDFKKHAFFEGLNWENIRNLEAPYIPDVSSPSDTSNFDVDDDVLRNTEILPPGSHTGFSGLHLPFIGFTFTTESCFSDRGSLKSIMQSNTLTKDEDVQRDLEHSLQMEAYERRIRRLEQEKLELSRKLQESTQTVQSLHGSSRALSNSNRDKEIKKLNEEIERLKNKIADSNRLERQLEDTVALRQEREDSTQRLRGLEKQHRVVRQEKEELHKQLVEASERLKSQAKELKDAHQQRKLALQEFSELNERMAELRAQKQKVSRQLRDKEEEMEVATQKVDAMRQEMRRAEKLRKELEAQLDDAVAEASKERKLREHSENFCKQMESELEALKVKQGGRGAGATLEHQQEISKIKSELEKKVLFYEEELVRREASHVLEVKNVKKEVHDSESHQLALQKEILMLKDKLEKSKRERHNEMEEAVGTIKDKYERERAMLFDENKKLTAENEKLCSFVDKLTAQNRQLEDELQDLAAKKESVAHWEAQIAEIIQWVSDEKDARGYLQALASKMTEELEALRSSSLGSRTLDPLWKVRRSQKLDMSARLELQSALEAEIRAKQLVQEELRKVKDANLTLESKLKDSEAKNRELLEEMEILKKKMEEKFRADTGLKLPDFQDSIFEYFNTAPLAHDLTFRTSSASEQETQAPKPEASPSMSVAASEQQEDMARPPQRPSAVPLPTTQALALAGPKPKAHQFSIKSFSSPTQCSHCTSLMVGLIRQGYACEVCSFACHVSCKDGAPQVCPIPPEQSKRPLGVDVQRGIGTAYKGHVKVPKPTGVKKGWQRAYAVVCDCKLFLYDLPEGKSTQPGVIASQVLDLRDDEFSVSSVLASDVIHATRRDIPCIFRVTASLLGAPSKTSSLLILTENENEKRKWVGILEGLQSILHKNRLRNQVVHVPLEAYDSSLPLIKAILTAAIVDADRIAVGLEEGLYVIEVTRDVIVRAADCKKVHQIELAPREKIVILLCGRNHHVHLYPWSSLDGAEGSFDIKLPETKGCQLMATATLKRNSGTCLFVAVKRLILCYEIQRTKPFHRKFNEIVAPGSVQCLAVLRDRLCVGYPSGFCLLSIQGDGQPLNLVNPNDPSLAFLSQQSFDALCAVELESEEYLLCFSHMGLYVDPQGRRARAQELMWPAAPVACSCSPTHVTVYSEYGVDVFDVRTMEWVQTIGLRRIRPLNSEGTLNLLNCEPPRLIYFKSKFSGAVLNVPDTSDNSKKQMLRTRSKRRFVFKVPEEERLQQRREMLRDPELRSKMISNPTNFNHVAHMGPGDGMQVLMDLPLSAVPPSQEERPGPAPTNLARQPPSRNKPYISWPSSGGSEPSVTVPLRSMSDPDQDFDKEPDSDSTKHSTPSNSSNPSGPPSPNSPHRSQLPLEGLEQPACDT", "experiment": "Kinome inhibition assay", "assay_type": "biochemical", "procedure": "as §1"}, "[6]": {"molecular_target": "ERBB2 (HER2) (Homo sapiens, UniProt P04626)", "experiment": "Kinome inhibition assay", "assay_type": "biochemical", "procedure": "as §1"}, "[7]": {"molecular_target": "FER (TYK3) (Homo sapiens, UniProt P16591)", "experiment": "Kinome inhibition assay", "assay_type": "biochemical", "procedure": "as §1"}, "[8]": {"molecular_target": "GSK3B (Homo sapiens, UniProt P49841)", "experiment": "Kinome inhibition assay", "assay_type": "biochemical", "procedure": "as §1"}, "[9]": {"molecular_target": "Insulin Receptor (Homo sapiens, UniProt P06213)", "experiment": "Kinome inhibition assay", "assay_type": "biochemical", "procedure": "as §1"}, "[10]": {"molecular_target": "LMK1 (Homo sapiens, UniProt P53667)", "experiment": "Kinome inhibition assay", "assay_type": "biochemical", "procedure": "as §1"}, "[11]": {"molecular_target": "MAPK8 (JNK1) (Homo sapiens, UniProt P45983)", "experiment": "Kinome inhibition assay", "assay_type": "biochemical", "procedure": "as §1"}, "[12]": {"molecular_target": "MET (HGFR) (Homo sapiens, UniProt P08581)", "experiment": "Kinome inhibition assay", "assay_type": "biochemical", "procedure": "as §1"}, "[13]": {"molecular_target": "NTRK1 (TRKA) (Homo sapiens, UniProt P04629)", "experiment": "Kinome inhibition assay", "assay_type": "biochemical", "procedure": "as §1"}, "[14]": {"molecular_target": "PDK1 (Homo sapiens, UniProt O15530)", "sequence (O15530 whole entry)": "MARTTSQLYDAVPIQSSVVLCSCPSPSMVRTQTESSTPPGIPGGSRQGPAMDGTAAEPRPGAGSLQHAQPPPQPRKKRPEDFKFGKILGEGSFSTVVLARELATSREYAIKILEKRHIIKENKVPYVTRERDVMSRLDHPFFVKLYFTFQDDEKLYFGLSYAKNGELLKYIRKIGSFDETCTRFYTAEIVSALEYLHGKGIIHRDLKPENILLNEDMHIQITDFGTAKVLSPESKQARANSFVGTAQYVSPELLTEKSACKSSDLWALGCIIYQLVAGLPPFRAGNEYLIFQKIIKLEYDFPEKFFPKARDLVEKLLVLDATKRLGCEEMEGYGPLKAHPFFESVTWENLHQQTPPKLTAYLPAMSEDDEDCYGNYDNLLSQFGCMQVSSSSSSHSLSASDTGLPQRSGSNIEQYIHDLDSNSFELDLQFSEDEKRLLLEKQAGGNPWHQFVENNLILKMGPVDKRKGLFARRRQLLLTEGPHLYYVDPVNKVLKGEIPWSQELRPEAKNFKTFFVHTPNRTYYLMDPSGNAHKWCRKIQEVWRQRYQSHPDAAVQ", "experiment": "Kinome inhibition assay", "assay_type": "biochemical", "procedure": "as §1"}, "[15]": {"molecular_target": "PIM1 (Homo sapiens, UniProt P11309)", "experiment": "Kinome inhibition assay", "assay_type": "biochemical", "procedure": "as §1"}, "[16]": {"molecular_target": "RET (Homo sapiens, UniProt P07949)", "sequence (P07949 29-1114)": "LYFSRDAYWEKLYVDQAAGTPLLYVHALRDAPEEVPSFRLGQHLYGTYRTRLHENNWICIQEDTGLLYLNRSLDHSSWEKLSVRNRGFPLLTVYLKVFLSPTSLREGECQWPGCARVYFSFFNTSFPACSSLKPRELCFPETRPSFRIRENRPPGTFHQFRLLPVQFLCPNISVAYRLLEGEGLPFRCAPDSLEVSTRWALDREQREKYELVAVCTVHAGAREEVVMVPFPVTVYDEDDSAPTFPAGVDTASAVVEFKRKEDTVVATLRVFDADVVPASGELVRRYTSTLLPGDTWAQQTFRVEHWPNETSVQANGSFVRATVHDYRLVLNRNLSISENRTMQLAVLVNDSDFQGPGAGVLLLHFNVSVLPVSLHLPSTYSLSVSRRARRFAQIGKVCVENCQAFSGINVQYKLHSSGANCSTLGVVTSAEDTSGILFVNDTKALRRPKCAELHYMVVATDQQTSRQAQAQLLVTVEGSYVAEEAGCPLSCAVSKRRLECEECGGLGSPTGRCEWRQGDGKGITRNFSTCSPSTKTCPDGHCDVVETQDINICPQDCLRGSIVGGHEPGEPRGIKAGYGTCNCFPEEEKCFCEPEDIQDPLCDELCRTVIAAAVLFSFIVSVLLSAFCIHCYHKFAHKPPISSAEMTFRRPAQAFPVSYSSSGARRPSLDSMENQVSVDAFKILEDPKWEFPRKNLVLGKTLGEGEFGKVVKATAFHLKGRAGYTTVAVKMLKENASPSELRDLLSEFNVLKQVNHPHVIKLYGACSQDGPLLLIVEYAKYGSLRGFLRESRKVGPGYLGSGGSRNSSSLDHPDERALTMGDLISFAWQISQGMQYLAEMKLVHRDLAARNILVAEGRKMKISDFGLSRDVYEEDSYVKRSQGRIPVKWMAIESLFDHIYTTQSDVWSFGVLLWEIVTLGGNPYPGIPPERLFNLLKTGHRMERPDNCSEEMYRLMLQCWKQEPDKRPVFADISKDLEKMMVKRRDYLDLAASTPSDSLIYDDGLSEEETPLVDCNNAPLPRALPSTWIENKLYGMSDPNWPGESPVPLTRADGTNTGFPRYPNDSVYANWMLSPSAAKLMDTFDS", "experiment": "Kinome inhibition assay", "assay_type": "biochemical", "procedure": "as §1"}, "[17]": {"molecular_target": "RP56KA5 (MSK1) (Homo sapiens, UniProt O75582)", "experiment": "Kinome inhibition assay", "assay_type": "biochemical", "procedure": "as §1"}, "[18]": {"molecular_target": "SGK1 (Homo sapiens, UniProt O00141)", "experiment": "Kinome inhibition assay", "assay_type": "biochemical", "procedure": "as §1"}, "[19]": {"molecular_target": "SGK2 (Homo sapiens, UniProt Q9HBY8)", "experiment": "Kinome inhibition assay", "assay_type": "biochemical", "procedure": "as §1"}, "[20]": {"molecular_target": "SRPK1 (Homo sapiens, UniProt Q96SB4)", "sequence (Q96SB4 whole entry)": "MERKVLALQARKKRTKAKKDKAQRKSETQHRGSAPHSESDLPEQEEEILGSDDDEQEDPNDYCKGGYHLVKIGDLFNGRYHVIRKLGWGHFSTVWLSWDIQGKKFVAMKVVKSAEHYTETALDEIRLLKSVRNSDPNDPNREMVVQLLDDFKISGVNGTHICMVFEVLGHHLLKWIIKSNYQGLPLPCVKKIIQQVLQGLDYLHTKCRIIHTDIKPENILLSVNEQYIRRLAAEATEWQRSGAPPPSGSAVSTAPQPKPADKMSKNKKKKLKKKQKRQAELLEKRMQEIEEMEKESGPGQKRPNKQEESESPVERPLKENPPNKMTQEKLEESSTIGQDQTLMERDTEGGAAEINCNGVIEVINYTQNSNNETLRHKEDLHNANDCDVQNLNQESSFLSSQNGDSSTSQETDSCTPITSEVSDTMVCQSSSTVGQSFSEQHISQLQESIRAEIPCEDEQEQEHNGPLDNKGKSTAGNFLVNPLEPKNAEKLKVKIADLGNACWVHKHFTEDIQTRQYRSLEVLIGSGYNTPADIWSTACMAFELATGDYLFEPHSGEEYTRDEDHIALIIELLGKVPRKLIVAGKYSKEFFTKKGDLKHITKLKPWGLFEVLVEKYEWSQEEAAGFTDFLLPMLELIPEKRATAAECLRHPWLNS", "experiment": "Kinome inhibition assay", "assay_type": "biochemical", "procedure": "as §1"}, "[21]": {"test_system": "human HL-60 promyelocytic leukemia xenograft", "experiment": "HL-60 xenograft in SCID mice", "details": "for median TTE (time to endpoint): control median TTE 11.0 days", "quoted_text": "Nude-athymic mice were maintained in accordance with the Institutional Animal Care and Use Committee procedures and guidelines.\nThe medium was supplemented with 10% heat-inactivated fetal bovine serum and 2 mM glutamine.\nThe human HL-60 promyelocytic leukemia cells used for implantation were harvested during log phase growth and resuspended in phosphate-buffered saline at 8.0×10^7 cells/mL. Each mouse was injected s.c. in the right flank with 1.6×10^7 cells (0.2 mL cell suspension). Tumors were monitored twice weekly and then daily as their volumes approached 100 mm^3. […] Tumor size, in mm3, was calculated as: Tumor Volume=w2×l, where w=width and l=length in mm of the tumor. Tumor weight can be estimated with the assumption that 1 mg is equivalent to 1 mm3 of tumor volume.\nThe agent was given dose at 5 mg/kg once every day (qd) and every other day (q2d) to endpoint. Treatments began on Day 1 (D1) in groups of male SCID mice (n=6) bearing established (˜444.4 mm3) subcutaneous tumors. […] Logrank tests determine significance of the differences between TTE values for drug-treated and control mice, at P≦0.05."}, "[22]": {"details": "@ 10 μM, read-out: Single dose inhibition"}, "[23]": {"details": "@ 30 μM, read-out: Single dose inhibition"}, "[24]": {"details": "5 mg/kg p.o. every other day (q2d)"}}, "note": "Counter-ions that a name gives are not always drawn.", "data": [{"smiles": "O=c1[nH]/c(=C\\c2ccc(OCc3ccncc3)cn2)c(=O)[nH]/c1=C\\c1ccccc1", "note": "[Compound 2, 3-benzylidene-6-((5-(pyridin-4-ylmethoxy)pyridin-2-yl)methylene)piperazine-2,5-dione methanesulfonic acid salt]", "values": [{"measurement": "inhibition at 10 µM", "setting": "[1]; [22]", "result": 90, "unit": "%"}, {"measurement": "IC50", "setting": "[1]; ABL1, Mouse", "result": 3.17, "unit": "µM"}, {"measurement": "inhibition at 10 µM", "setting": "[2]; [22]", "result": 93, "unit": "%"}, {"measurement": "IC50", "setting": "[2]; AKT1 (PRKBA), Human", "result": 3.93, "unit": "µM"}, {"measurement": "inhibition at 30 µM", "setting": "[3]; [23]", "result": 73, "unit": "%"}, {"measurement": "IC50", "setting": "[3]; AURKA (Aurora-A), Human", "result": 13.7, "unit": "µM"}, {"measurement": "inhibition at 10 µM", "setting": "[4]; [22]", "result": 70, "unit": "%"}, {"measurement": "IC50", "setting": "[4]; CAMK2D (KCC2D), Human", "result": 7.39, "unit": "µM"}, {"measurement": "inhibition at 10 µM", "setting": "[5]; [22]", "result": 52, "unit": "%"}, {"measurement": "IC50", "setting": "[5]; CDC42BPB, Human", "result": 8.18, "unit": "µM"}, {"measurement": "inhibition at 10 µM", "setting": "[6]; [22]", "result": 69, "unit": "%"}, {"measurement": "IC50", "setting": "[6]; ERBB2 (HER2), Human", "result": 5.56, "unit": "µM"}, {"measurement": "inhibition at 10 µM", "setting": "[7]; [22]", "result": 55, "unit": "%"}, {"measurement": "IC50", "setting": "[7]; FER (TYK3), Human", "result": 7.23, "unit": "µM"}, {"measurement": "inhibition at 30 µM", "setting": "[8]; [23]", "result": 69, "unit": "%"}, {"measurement": "IC50", "setting": "[8]; GSK3B, Human", "result": 10.9, "unit": "µM"}, {"measurement": "inhibition at 3 µM", "setting": "[9]; @ 3 μM, read-out: Single dose inhibition", "result": 70, "unit": "%"}, {"measurement": "IC50", "setting": "[9]; Insulin Receptor, Human", "result": 1.83, "unit": "µM"}, {"measurement": "inhibition at 10 µM", "setting": "[10]; [22]", "result": 68, "unit": "%"}, {"measurement": "IC50", "setting": "[10]; LMK1, Human", "result": 5.8, "unit": "µM"}, {"measurement": "inhibition at 10 µM", "setting": "[11]; [22]", "result": 74, "unit": "%"}, {"measurement": "IC50", "setting": "[11]; MAPK8 (JNK1), Human", "result": 4.79, "unit": "µM"}, {"measurement": "inhibition at 30 µM", "setting": "[12]; [23]", "result": 79, "unit": "%"}, {"measurement": "IC50", "setting": "[12]; MET (HGFR), Human", "result": 12.3, "unit": "µM"}, {"measurement": "inhibition at 30 µM", "setting": "[13]; [23]", "result": 66, "unit": "%"}, {"measurement": "IC50", "setting": "[13]; NTRK1 (TRKA), Human", "result": 17.4, "unit": "µM"}, {"measurement": "inhibition at 10 µM", "setting": "[14]; [22]", "result": 59, "unit": "%"}, {"measurement": "IC50", "setting": "[14]; PDK1, Human", "result": 8.18, "unit": "µM"}, {"measurement": "inhibition at 30 µM", "setting": "[15]; [23]", "result": 98, "unit": "%"}, {"measurement": "IC50", "setting": "[15]; PIM1, Human", "result": 9.52, "unit": "µM"}, {"measurement": "inhibition at 10 µM", "setting": "[16]; [22]", "result": 73, "unit": "%"}, {"measurement": "IC50", "setting": "[16]; RET, Human", "result": 4.89, "unit": "µM"}, {"measurement": "inhibition at 10 µM", "setting": "[17]; [22]", "result": 53, "unit": "%"}, {"measurement": "IC50", "setting": "[17]; RP56KA5 (MSK1), Human", "result": 7.88, "unit": "µM"}, {"measurement": "inhibition at 10 µM", "setting": "[18]; [22]", "result": 83, "unit": "%"}, {"measurement": "IC50", "setting": "[18]; SGK1, Human", "result": 2.92, "unit": "µM"}, {"measurement": "inhibition at 10 µM", "setting": "[19]; [22]", "result": 78, "unit": "%"}, {"measurement": "IC50", "setting": "[19]; SGK2, Human", "result": 3.55, "unit": "µM"}, {"measurement": "inhibition at 10 µM", "setting": "[20]; [22]", "result": 61, "unit": "%"}, {"measurement": "IC50", "setting": "[20]; SRPK1, Human", "result": 10.6, "unit": "µM"}, {"measurement": "% TGD (percent tumor growth delay)", "setting": "[21]; [24]", "result": 120, "unit": "%"}, {"measurement": "T−C", "setting": "[21]; [24]", "result": 13.2, "unit": "days"}, {"measurement": "median TTE (time to endpoint)", "setting": "[21]; [24]", "result": 24.2, "unit": "days"}, {"measurement": "maximum BW loss", "setting": "[21]; 5 mg/kg p.o. every other day (q2d), on day 8", "result": 4.2, "unit": "%"}, {"measurement": "% TGD (percent tumor growth delay)", "setting": "[21]; 5 mg/kg p.o. once a day (qd)", "result": 29, "unit": "%"}, {"measurement": "T−C", "setting": "[21]; 5 mg/kg p.o. once a day (qd)", "result": 3.2, "unit": "days"}, {"measurement": "median TTE (time to endpoint)", "setting": "[21]; 5 mg/kg p.o. once a day (qd)", "result": 14.2, "unit": "days"}, {"measurement": "treatment related deaths", "setting": "[21]; 5 mg/kg p.o. once a day (qd), n=6", "result": "Two"}, {"measurement": "maximum BW loss", "setting": "[21]; 5 mg/kg p.o. once a day (qd), on day 11", "result": 1.9, "unit": "%"}]}]}
